According to patent publication US8986696B2, “Trans-capsular administration of p38 map kinase inhibitors into orthopedic joints” (DePuy Mitek, Inc., priority 2007, dated 2015):

Columns and labels:
[1] = test system: injured cartilage explants, NO production; experiment: drop tower design model: NO production; type: cell-based, bovine; details: cocktail of cytokines
Description: (§1) The device comprises a vertical rail that guides a sliding weight from 0.1 kg to 3 kg directly onto a force transducer which is situated at the bottom of the device. A sphere-shaped 2 mm indenter resting on a specimen is located at the bottom of the vertical rail. The indenter is held by a stop screw. The specimen is rigidly attached to a tissue holder underneath the indenter, to avoid side movements, the specimen is rigidly attached to the tissue holder. In this manner, the force transducer transduces a force indirectly onto the specimen. Adjusting the weight of a mass and height from which the mass drops varies the magnitude of the intended impact. […]
(§2) In the first method, bovine or human PBMCs were freshly prepared using Ficoll gradient by Lampire Biological Laboratories, Inc. PBMCs in RPMI w/10% FCS at delivery were spun down at 1500 rpm for twenty minutes and the cell pellet was washed twice with 1×PBS to wash off the residual Ficoll. […] Each conditioned medium was assessed for levels of pro-inflammatory cytokines to ensure their secretion from PBMC. […]
Nitrate/Nitrite was measured using the Griess reaction (Green L. C. et al., “Analysis of Nitrate, Nitrite, and [15N]nitrate in Biological Fluids,” Anal. Biochem. 126: 131-138 (1982)) with a Nitrate/Nitrite Colorimetric Assay Kit (Cayman Chemicals), as described in Example III above.

[2] = test system: injured cartilage explants, PGE2 synthesis; experiment: drop tower design model: PGE2 synthesis; type: cell-based, bovine; details: cocktail of cytokines
Description: as §1, with “impact. For example, a weight mass (e.g., […]) held by a weight holder can be released from a height of e.g., 36 cm and dropped onto the force transducer.” for “impact.”
as §2
PGE2 was measured with STAT-Prostaglandin E2 EIA ELISA kit (Cayman Biochemicals), as described in Example III above. […]

[3] = test system: LPS-induced IL-1 in hPBMC; experiment: LPS-induced IL-1 in hPBMC; type: cell-based, human

## OCCC#Cc1nc(-c2ccc(F)cc2)c(-c2ccncc2)n1CCCc1ccccc1 [JNJ 3026582 (RWJ 67657), 4-[4-(4-fluorophenyl)-1-(3-phenylpropyl)-5-(4-pyridinyl)-1H-imidazol-2-yl]-3-butyn-1-ol]
[1]
  NO production, inhibition: dose-dependently inhibited
[2]
  PGE2 synthesis, inhibition: dose-dependently inhibited

## CC(=O)N1CCN(c2c(-c3ccncc3)c(-c3ccc(F)cc3)c(C#N)n2C)CC1 [JNJ 17089540 (RWJ 669307)]
[3]
  IC50: 250 nM
